{"source": "patent US20060122279A1", "about": "“Hydrophobic polyamine amides as potent lipopolysaccharide sequestrants” (priority 2004, published 2006)", "key": {"[1]": {"format": "binding, E. coli 0111:B4", "conditions": "E. coli 0111:B4 LPS; Tables 1-3; read-out: ED50 (half-maximal effective displacement of BC probe from LPS)", "procedure": "Polymyxin B (PMB), a peptide antibiotic known to bind and neutralize LPS^47 serves as the positive control and reference compound for every plate, enabling the quantitative assessment of repeatability and reproducibility (CV and Z′ factors) for the assay. Robotic liquid handling is performed on a Precision 2000 automated microplate pipetting system, programmed using the Precision Power software, Bio-Tek Instruments Inc., VT, USA. Stock solutions of LPS (5 mg/ml; E. coli 0111:B4; procured from Sigma) and BC (500 μM) are prepared in Tris buffer (pH 7.4, 50 mM). 1 ml each of the LPS and BC stocks are mixed and diluted in Tris buffer to a final volume of 100 ml, yielding final concentrations of 50 μg/ml of LPS and 5 μM BC. 40 μl of this BC:LPS mixture is added to each well of the plate using the Precision 2000. Fluorescence measurements are made at 25° C. on a Fluoromax-3 with Micromax Microwell 384-well plate reader, using DataMax software, Jobin Yvon Inc., N.J. The BC excitation wavelength is 580 nm, emission spectra are taken at 620 nm with both emission and excitation monochromator bandpasses set at 5 nm."}, "[2]": {"system": "murine macrophage J774.A1 cells", "assay": "Nitric oxide (NO) inhibition in LPS-stimulated J774.A1 cells (Griess)", "format": "cell-based", "procedure": "Murine monocytes (J774.A1 cells) produce measurable quantities of NO on exposure to LPS and provide a model for the rapid assessment of compounds to neutralize LPS activity. […] In all experiments, Polymyxin B (PMB), a decapeptide antibiotic, known to bind and neutralize LPS,^29;47;48 is used as a reference compound.\nNitric oxide production is measured as total nitrite in murine macrophage J774.A1 cells using the Griess reagent system.^53;54 Murine macrophage J774.A1 cells are grown in RPMI-1640 cell-culture medium containing L-glutamine and sodium bicarbonate and supplemented with 10% fetal bovine serum, 1% L-glutamine-penicillin-streptomycin solution, and 200 μg/ml L-arginine at 37° C. in a 5% CO2 atmosphere. Cells are plated at ˜2×10^6/ml in a volume of 40 μl/well, in 384 well, flat-bottomed, cell culture treated microtiter plates until confluency and subsequently stimulated with 100 ng/ml lipopolysaccharide (LPS). Concurrent to LPS stimulation, serially diluted concentrations of test compounds are added to the cell medium and left to incubate overnight for 16 h. Polymyxin B is used as reference compound in each plate. Positive—(LPS stimulation only) and negative-controls (J774.A1 medium only) are included in each experiment. Nitrite concentrations are measured adding 30 μl of supernatant to equal volumes of Griess reagents (50 μl/well; 0.1% NED solution in ddH2O and 1% sulfanilamide, 5% phosphoric acid solution in ddH2O) and incubating for 15 minutes at room temperature in the dark. Absorbance at 535 nm is measured using a Molecular Devices Spectramax M2 multifunction plate reader (Sunnyvale, Calif.). Nitrite concentrations are interpolated from standard curves obtained from serially diluted sodium nitrite standards."}, "CF-1 mice": {"system": "CF-1 mice", "assay": "Mouse lethality model of endotoxic shock (D-galactosamine sensitized, LPS challenge)", "format": "in vivo", "conditions": "for time window of protection, in words: 200 ng/mouse LPS", "procedure": "Based on the results of the displacement assays, NO and cytokine inhibition data, 8 is elected for detailed evaluation in animal experiments. […] In all experiments reported herein, a supralethal dose of 200 ng per mouse, in a final volume of 0.2 ml saline is used. The dose-response of protection afforded by 8 is depicted in Table 4. Previous studies with labile spermine conjugates such as DOSPER^37 had shown the window of protection to be very short, a 15 minute window of protection. Compound 8, with its greater anticipated hydrolytic stability, is examined to see if it affords a more extended time-window of protection. 200 μg of 8 in a final volume of 0.2 ml injections are administered intraperitoneally at times of −6, −4, −2, 0, +1, and +2 relative to time-zero, the time at which all mice are challenged with 200 ng/mouse LPS injections. […] Testing to see if in this treatment regime, which is characterized by a slow, gradual systemic absorption from the site of injection, a longer duration of protection would be observed is carried out. Lethality is once again assessed 24 hours following the final injection.\nFemale, outbred, 9- to 11-week-old CF-1 mice (Charles River, Wilmington, Mass.) weighing 22-28 g are used as described elsewhere.^37 Upon arrival, the mice are allowed to acclimatize for a week prior to experimentation, housed 5 per cage in a controlled environment at the AALAC-accredited University of Kansas Animal Care Facility, and allowed access to mouse chow and water ad libitum. […] In experiments designed to test dose-response effects of the acyl-spermines in affording protection against LPS-induced lethality, mice receive graded doses of compound diluted in saline, i.p., in one flank, immediately before a supralethal (200 ng) LPS challenge, which is administered as a separate i.p. injection into the other flank. In experiments in which the temporal window of protection is to be examined, a fixed dose of 200 μg/mouse of compound is administered at various times, before, or after supralethal (200 ng/mouse) LPS challenge. Lethality is determined at 24 h post LPS challenge."}, "NFκB": {"system": "NFκB", "assay": "NFκB inhibition (LPS-induced)", "format": "cell-based", "conditions": "in words", "text": "A focused library of alkyl or acyl c-substituted lysine-spermine conjugates is synthesized with even carbon-numbered chains of C14 to C20 lengths. […] Furthermore, the data showhigh activity compounds are those with chain lengths between C16 and C20. […] The exemplary compounds L-Lys-ε-(stearoyl)-N^1-spermine, D-Lys-ε-(stearoyl)-N^1-spermine, L-Lys-ε-(octadecanyl)-N^1-spermine and D-Lys-ε-(octadecanyl)—N1-spermine all show high activity for the prevention of LPS-induced NFκβ cytokine release from stimulated lymphocytes. Furthermore, the exemplary compounds L-Lys-ε-(stearoyl)-N^1-spermine, D-Lys-ε-(stearoyl)-N^1-spermine, L-Lys-ε-(octadecanyl)-N^1-spermine and D-Lys-ε-(octadecanyl)-N^1-spermine all show high activity for the prevention of LPS-induced NO release from stimulated lymphocytes."}}, "note": "pEC50, pIC50: −log10 of the molar value. Several values for one entry are separate records, joined by “and”; a condition that tells them apart may be missing. Identical values can stand only once. Like-named read-outs stand apart in the source and are kept apart here. Marks after values point to notes of the source that are not given here."}
{"smiles": "CCCCCCCCCCCCCCCCCC(=O)NCCCCC(N)C(=O)NCCCNCCCCNCCCN", "note": "[Compound 8, D-Lys-ε-(stearoyl)-N^1-spermine]", "values": [{"measurement": "pEC50", "setting": "[1]", "result": 5.06}, {"measurement": "pIC50", "setting": "[2]; J774.A1 cells, 100 ng/ml LPS, 16 h, Tables 1-3, read-out: NO IC50", "result": 5.70}, {"measurement": "pIC50", "setting": "[2]; Table 7 focused library, NO inhibition, read-out: NO", "result": 4.99}, {"measurement": "prevention of LPS-induced NO release from J774.A1 macrophages", "setting": "[2]; in words", "result": "high activity"}, {"measurement": "No. of live mice/total no. of mice tested", "setting": "CF-1 mice; 10 μg/mouse i.p., immediately before 200 ng/mouse LPS, lethality at 24 h", "result": "0/5"}, {"measurement": "No. of live mice/total no. of mice tested", "setting": "CF-1 mice; 50 μg/mouse i.p., immediately before 200 ng/mouse LPS, lethality at 24 h", "result": "1/5"}, {"measurement": "No. of live mice/total no. of mice tested", "setting": "CF-1 mice; 100 μg/mouse i.p., immediately before 200 ng/mouse LPS, lethality at 24 h", "result": "4/5*"}, {"measurement": "time window of protection, in words", "setting": "CF-1 mice; 200 μg i.p.", "result": "significant protection up to 6 h prior to LPS challenge"}, {"measurement": "No. of live mice/total number of mice tested", "setting": "CF-1 mice; 200 μg intraperitoneally at 0 h relative to LPS (200 ng/mouse)", "result": "4/5*"}, {"measurement": "No. of live mice/total number of mice tested", "setting": "CF-1 mice; 200 μg intraperitoneally at +1 h relative to LPS (200 ng/mouse)", "result": "0/5*"}, {"measurement": "No. of live mice/total number of mice tested", "setting": "CF-1 mice; 200 μg intraperitoneally at +2 h relative to LPS (200 ng/mouse)", "result": "2/5"}, {"measurement": "No. of live mice/total number of mice tested", "setting": "CF-1 mice; 200 μg intraperitoneally at −2 h relative to LPS (200 ng/mouse)", "result": "4/5*"}, {"measurement": "No. of live mice/total number of mice tested", "setting": "CF-1 mice; 200 μg intraperitoneally at −4 h relative to LPS (200 ng/mouse)", "result": "4/5*"}, {"measurement": "No. of live mice/total number of mice tested", "setting": "CF-1 mice; 200 μg intraperitoneally at −6 h relative to LPS (200 ng/mouse)", "result": "3/5"}, {"measurement": "time window of protection, in words", "setting": "CF-1 mice; 200 μg subcutaneous", "result": "significant protection even when the compound is administered 16 h ahead of LPS challenge"}, {"measurement": "No. of live mice/total no. of mice tested", "setting": "CF-1 mice; 200 μg subcutaneously at 0 h relative to LPS (200 ng/mouse)", "result": "1/5"}, {"measurement": "No. of live mice/total no. of mice tested", "setting": "CF-1 mice; 200 μg subcutaneously at +2 h relative to LPS (200 ng/mouse)", "result": "1/5"}, {"measurement": "No. of live mice/total no. of mice tested", "setting": "CF-1 mice; 200 μg subcutaneously at −4 h relative to LPS (200 ng/mouse)", "result": "5/5*"}, {"measurement": "No. of live mice/total no. of mice tested", "setting": "CF-1 mice; 200 μg subcutaneously at −8 h relative to LPS (200 ng/mouse)", "result": "3 of the 5 and 3/5"}, {"measurement": "No. of live mice/total no. of mice tested", "setting": "CF-1 mice; 200 μg subcutaneously at −12 h relative to LPS (200 ng/mouse)", "result": "3 of the 5 and 3/5"}, {"measurement": "No. of live mice/total no. of mice tested", "setting": "CF-1 mice; 200 μg subcutaneously at −16 h relative to LPS (200 ng/mouse)", "result": "3 of the 5 and 3/5"}, {"measurement": "No. of live mice/total no. of mice tested", "setting": "CF-1 mice; 200 μg subcutaneously at −24 h relative to LPS (200 ng/mouse)", "result": "Two of the 5 and 2/5"}, {"measurement": "No. of live mice/total no. of mice tested", "setting": "CF-1 mice; 200 μg/mouse i.p., immediately before 200 ng/mouse LPS, lethality at 24 h", "result": "5/5*"}, {"measurement": "prevention of LPS-induced NFκβ cytokine release from stimulated lymphocytes", "setting": "NFκB", "result": "high activity"}]}
